Data reported in US20070049564A1 (Wyeth, priority 2005, published 2007).
≈ marks a conversion by molar mass, not a printed value. Like-named read-outs stand apart in the source and are kept apart here.

Tests used:
E. coli GC 2233 = test: MIC, broth microdilution; settings: Escherichia coli
E. coli GC 2270 = test: MIC, broth microdilution; settings: Escherichia coli
Staph. = test: Range of MIC for Staph. strains, including MRSA; settings: Staphylococcus aureus, MRSA
E. faecium GC 4556 = test: MIC, broth microdilution; settings: Enterococcus faecium
S. aureus GC 1079 = test: MIC, broth microdilution; settings: Staphylococcus aureus
S. pyogenes GC 4563 = test: MIC, broth microdilution; settings: Streptococcus pyogenes
S. typhimurium GC 2172 = test: MIC, broth microdilution; settings: Salmonella enterica, TYPHIMURIUM
E. faecium GC 2243 = test: MIC, broth microdilution; settings: Enterococcus faecium
E. coli GC 1073 = test: MIC, broth microdilution; settings: Escherichia coli
E. faecalis GC 2265 = test: MIC, broth microdilution; settings: Enterococcus faecalis
S. agalactiae GC 4564 = test: MIC, broth microdilution; settings: Streptococcus agalactiae
Procedure: (§1) Antimicrobial susceptibility testing. The in vitro activities of the antibiotics are determined by the broth microdilution method as recommended by the National Committee for Clinical Laboratory Standards (NCCLS) (1). Mueller-Hinton II broth (MHBII)(BBL Cockeysville, Md.) is the medium employed in the testing procedures. Microtiter plates containing serial dilutions of each antimicrobial agent are inoculated with each organism to yield the appropriate density (10^5 CFU/ml) in a 100 μl final volume. The plates are incubated for 18-22 hours at 35° C. in ambient air.
(§2) Representative compounds were first incubated in mouse serum for an hour prior to the in vitro testing against a panel of selected gram-positive and gram-negative bacteria strains. All compounds were also pre-incubated in water for an hour prior to testing as control. Representative compounds of Formula I were incubated in human serum prior to MIC determination.

E. coli GC 3226 = test: MIC, broth microdilution; settings: Escherichia coli
E. faecalis GC 4555 = test: MIC, broth microdilution; settings: Enterococcus faecalis
Procedure: as §1, §2

E. coli GC 2235 = test: MIC, broth microdilution; settings: Escherichia coli
E. coli = test: Range of MIC for E. coli strains; settings: Escherichia coli
E. coli GC 2236 = test: MIC, broth microdilution; settings: Escherichia coli
c. albicans GC 3066 = test: MIC, broth microdilution
S. aureus GC 6469 = test: MIC, broth microdilution; settings: Staphylococcus aureus
E. coli GC 2271 = test: MIC, broth microdilution; settings: Escherichia coli
S. aureus GC 6335 = test: MIC, broth microdilution; settings: Staphylococcus aureus

## CCCN(CC(=O)Nc1cc(N(C)C)c2c(c1O)C(=O)C1=C(O)[C@]3(O)C(=O)C(C(N)=O)=C(O)[C@@H](N(C)C)[C@@H]3C[C@@H]1C2)C(=O)OCOC(=O)c1ccc(C(C)(C)C)cc1 [Example 28, ({[(2-{[(5aR,6aS,7S,10aS)-9-(aminocarbonyl)-4,7-bis(dimethylamino)-1,8,10a,11-tetrahydroxy-10,12-dioxo-5,5a,6,6a,7,10,10a,12-octahydrotetracen-2-yl]amino}-2-oxoethyl)(propyl)amino]carbonyl}oxy)methyl 4-tert-butylbenzoate]
E. coli GC 2233; GC2233, read-out: MINIMAL INHIBITORY CONCENTRATION MIC, pre-incubated in Mouse Serum
  MIC: 0.5 µg/mL (≈ 0.62 µM)
E. coli GC 2233; GC2233, read-out: MINIMAL INHIBITORY CONCENTRATION MIC, pre-incubated in Water
  MIC: > 64 µg/mL
E. coli GC 2270; GC2270, read-out: MINIMAL INHIBITORY CONCENTRATION MIC, pre-incubated in Mouse Serum
  MIC: 0.5 µg/mL (≈ 0.62 µM)
E. coli GC 2270; GC2270, read-out: MINIMAL INHIBITORY CONCENTRATION MIC, pre-incubated in Water
  MIC: > 64 µg/mL
Staph.; read-out: Range of MIC, Staph (Mouse Serum)
  MIC: 0.5 to 4 µg/mL (≈ 0.62 to 4.96 µM)
Staph.; read-out: Range of MIC, Staph (Water)
  MIC: 4 to 64 µg/mL (≈ 4.96 to 79.4 µM)
Staph.; read-out: Range of MIC, Staph. (mouse serum)
  MIC: 0.5 to 4 µg/mL (≈ 0.62 to 4.96 µM)
Staph.; read-out: Range of MIC, Staph. (water)
  MIC: 4 to 64 µg/mL (≈ 4.96 to 79.4 µM)
E. faecium GC 4556; GC4556, read-out: MINIMAL INHIBITORY CONCENTRATION MIC, pre-incubated in Mouse Serum
  MIC: 0.5 µg/mL (≈ 0.62 µM)
E. faecium GC 4556; GC4556, read-out: MINIMAL INHIBITORY CONCENTRATION MIC, pre-incubated in Water
  MIC: 32 µg/mL (≈ 39.7 µM)
S. aureus GC 1079; GC1079, read-out: MINIMAL INHIBITORY CONCENTRATION MIC, pre-incubated in Mouse Serum
  MIC: 2 µg/mL (≈ 2.48 µM)
S. aureus GC 1079; GC1079, read-out: MINIMAL INHIBITORY CONCENTRATION MIC, pre-incubated in Water
  MIC: 64 µg/mL (≈ 79.4 µM)
S. pyogenes GC 4563; GC4563, read-out: MINIMAL INHIBITORY CONCENTRATION MIC, pre-incubated in Mouse Serum
  MIC: < 0.06 µg/mL
S. pyogenes GC 4563; GC4563, read-out: MINIMAL INHIBITORY CONCENTRATION MIC, pre-incubated in Water
  MIC: < 0.06 µg/mL
S. typhimurium GC 2172; read-out: MINIMAL INHIBITORY CONCENTRATION MIC, pre-incubated in Mouse Serum
  MIC: 8 µg/mL (≈ 9.93 µM)
S. typhimurium GC 2172; read-out: MINIMAL INHIBITORY CONCENTRATION MIC, pre-incubated in Water
  MIC: > 64 µg/mL
E. faecium GC 2243; GC2243, read-out: MINIMAL INHIBITORY CONCENTRATION MIC, pre-incubated in Mouse Serum
  MIC: 0.25 µg/mL (≈ 0.31 µM)
E. faecium GC 2243; GC2243, read-out: MINIMAL INHIBITORY CONCENTRATION MIC, pre-incubated in Water
  MIC: 0.25 µg/mL (≈ 0.31 µM)
E. coli GC 1073; GC1073, read-out: MINIMAL INHIBITORY CONCENTRATION MIC, pre-incubated in Mouse Serum
  MIC: 0.5 µg/mL (≈ 0.62 µM)
E. coli GC 1073; GC1073, read-out: MINIMAL INHIBITORY CONCENTRATION MIC, pre-incubated in Water
  MIC: > 64 µg/mL
E. faecalis GC 2265; GC2265, read-out: MINIMAL INHIBITORY CONCENTRATION MIC, pre-incubated in Mouse Serum
  MIC: 2 µg/mL (≈ 2.48 µM)
E. faecalis GC 2265; GC2265, read-out: MINIMAL INHIBITORY CONCENTRATION MIC, pre-incubated in Water
  MIC: 64 µg/mL (≈ 79.4 µM)
S. agalactiae GC 4564; GC4564, read-out: MINIMAL INHIBITORY CONCENTRATION MIC, pre-incubated in Mouse Serum
  MIC: 0.25 µg/mL (≈ 0.31 µM)
S. agalactiae GC 4564; GC4564, read-out: MINIMAL INHIBITORY CONCENTRATION MIC, pre-incubated in Water
  MIC: 0.5 µg/mL (≈ 0.62 µM)
E. coli GC 3226; GC3226, read-out: MINIMAL INHIBITORY CONCENTRATION MIC, pre-incubated in Mouse Serum
  MIC: 0.5 µg/mL (≈ 0.62 µM)
E. coli GC 3226; GC3226, read-out: MINIMAL INHIBITORY CONCENTRATION MIC, pre-incubated in Water
  MIC: > 64 µg/mL
E. faecalis GC 4555; GC4555, read-out: MINIMAL INHIBITORY CONCENTRATION MIC, pre-incubated in Mouse Serum
  MIC: 0.25 µg/mL (≈ 0.31 µM)
E. faecalis GC 4555; GC4555, read-out: MINIMAL INHIBITORY CONCENTRATION MIC, pre-incubated in Water
  MIC: 64 µg/mL (≈ 79.4 µM)
E. coli GC 2235; GC2235, read-out: MINIMAL INHIBITORY CONCENTRATION MIC, pre-incubated in Mouse Serum
  MIC: 0.5 µg/mL (≈ 0.62 µM)
E. coli GC 2235; GC2235, read-out: MINIMAL INHIBITORY CONCENTRATION MIC, pre-incubated in Water
  MIC: > 64 µg/mL
E. coli; 20 h, read-out: Range of MIC, E. coli (Mouse Serum)
  MIC: 0.25 to 1 µg/mL (≈ 0.31 to 1.24 µM)
E. coli; read-out: Range of MIC, E. coli (Water)
  MIC: > 64 µg/mL
E. coli; read-out: Range of MIC, E. coli (mouse serum)
  MIC: 0.25 to 1 µg/mL (≈ 0.31 to 1.24 µM)
E. coli; read-out: Range of MIC, E. coli (water)
  MIC: > 64 µg/mL
E. coli GC 2236; GC2236, read-out: MINIMAL INHIBITORY CONCENTRATION MIC, pre-incubated in Mouse Serum
  MIC: 0.5 µg/mL (≈ 0.62 µM)
E. coli GC 2236; GC2236, read-out: MINIMAL INHIBITORY CONCENTRATION MIC, pre-incubated in Water
  MIC: > 64 µg/mL
c. albicans GC 3066; Candida albicans, GC3066, read-out: MINIMAL INHIBITORY CONCENTRATION MIC
  MIC: > 64 µg/mL
c. albicans GC 3066; pre-incubated in Water
  MINIMAL INHIBITORY CONCENTRATION MIC: >64 UG/ML
S. aureus GC 6469; GC6469, read-out: MINIMAL INHIBITORY CONCENTRATION MIC, pre-incubated in Mouse Serum
  MIC: 4 µg/mL (≈ 4.96 µM)
S. aureus GC 6469; GC6469, read-out: MINIMAL INHIBITORY CONCENTRATION MIC, pre-incubated in Water
  MIC: 64 µg/mL (≈ 79.4 µM)
E. coli GC 2271; GC2271, read-out: MINIMAL INHIBITORY CONCENTRATION MIC, pre-incubated in Mouse Serum
  MIC: 0.25 µg/mL (≈ 0.31 µM)
E. coli GC 2271; GC2271, read-out: MINIMAL INHIBITORY CONCENTRATION MIC, pre-incubated in Water
  MIC: > 64 µg/mL
S. aureus GC 6335; GC6335, read-out: MINIMAL INHIBITORY CONCENTRATION MIC, pre-incubated in Mouse Serum
  MIC: 1 µg/mL (≈ 1.24 µM)
S. aureus GC 6335; GC6335, read-out: MINIMAL INHIBITORY CONCENTRATION MIC, pre-incubated in Water
  MIC: 16 µg/mL (≈ 19.9 µM)
